The record followed here is paper PMC7013880, “Synthesis of Spin-Labelled Bergamottin: A Potent CYP3A4 Inhibitor with Antiproliferative Activity” (International Journal of Molecular Sciences, 2020).

pIC50: −log10 of the molar value.

In data set [1] the test system is NIH3T3 cells. Put plainly: WST-1 cell viability assay, NIH3T3 fibroblasts. It counts as cell-based. The following applies: Mus musculus, NIH3T3 murine embryonic fibroblasts, 24 h treatment. The method, then: (§1) Murine embryonic fibroblast NIH3T3 cells were maintained in DMEM (Cat No. 043-30085, Wako Pure Chemical, Osaka, Japan) supplemented with 10% newborn calf serum (NBCS) at 37 °C and 5% CO2. Human cervix carcinoma HeLa cells were maintained in DMEM supplemented with 10% fetal bovine serum at 37 °C and 5% CO2. To determine the toxicity of BM and SL-BM, the WST-1 cell viability assay was employed as described previously. The cells (NIH3T3: 2000 per well; HeLa: 5000 per well) were seeded into all the wells of 96-well plates. After 24 h, the medium was replaced, and the cells were treated with the test compounds for 24 h. Then, the cells were incubated with a WST-1 solution (3.6 µg/µL WST-1, 70 ng/µL 1-methoxy phenazine methosulfate in 20 mM 4-(2-hydroxyethyl)-1-piperazineethanesufonic acid–KOH (pH 7.4); Dojindo, Kumamoto, Japan) for 1 h at 37 °C, and the absorbance of each well was recorded at 440 nm using a Multiskan FC microplate reader (Thermo Fisher Scientific).
(In general: Tetrazolium dyes change colour on reduction, which living cells bring about.)

For data set [2], the system named is HeLa cells. As to the kind of experiment: WST-1 cell viability assay, HeLa cells. It counts as cell-based. The following applies: HeLa human cervix carcinoma cells, 24 h treatment. How it is done:
as §1

For data set [3], the target named is CYP2C19 (Homo sapiens, UniProt P33261). Put plainly: CYP2C19 inhibition assay (CypExpress 2C19 kit, S-mephenytoin substrate, HPLC). To be noted: relative to BM.
Sequence of CYP2C19 (P33261 whole entry): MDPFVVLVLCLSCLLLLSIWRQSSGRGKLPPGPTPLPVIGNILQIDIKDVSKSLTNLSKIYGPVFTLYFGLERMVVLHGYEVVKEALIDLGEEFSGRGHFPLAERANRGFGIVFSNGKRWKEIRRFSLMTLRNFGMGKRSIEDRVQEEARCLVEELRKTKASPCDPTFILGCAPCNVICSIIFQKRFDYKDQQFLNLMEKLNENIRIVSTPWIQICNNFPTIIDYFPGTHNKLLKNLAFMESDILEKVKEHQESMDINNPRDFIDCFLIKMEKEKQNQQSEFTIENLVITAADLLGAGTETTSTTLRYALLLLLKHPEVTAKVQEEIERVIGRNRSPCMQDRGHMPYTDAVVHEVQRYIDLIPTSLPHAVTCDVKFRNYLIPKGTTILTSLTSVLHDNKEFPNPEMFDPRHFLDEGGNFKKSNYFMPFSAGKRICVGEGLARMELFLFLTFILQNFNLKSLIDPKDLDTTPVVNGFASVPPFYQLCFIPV
Method: (§2) Stock solutions of BM, SL-BM, and positive controls (each 5000 μM) were prepared in dimethyl sulfoxide (Fluka) and stored at –20 °C. The inhibitory effects of BM and SL-BM on the CYP2C9, 2C19, and 3A4 enzymes were examined using CypExpress^TM assay kits by employing diclofenac, S-mephenytoin, and testosterone substrates, respectively.
(§3) The substrates and products were analyzed using the HPLC system comprising a pump (Waters 510; Milford, MA, USA), an injector (Rheodyne 7125) with a 20 μL sample loop, and a UV detector (Waters 486). The data were evaluated by employing Millennium Chromatographic Manager software (Waters). HPLC analyses of diclofenac and 4′-hydroxydiclofenac (CYP2C9 assay) [39, 40], S-mephenytoin, and 4-hydroxymephenytoin [42] as well as testosterone and 6β-hydroxytestosterone (CYP3A4 assay) [41] were performed as described previously.
(§4) Data were derived from at least three independent experiments and represented as the mean ± the standard error of the mean (SEM) values. The statistical significance (p < 0.05 and p < 0.01) was established by employing a one-way ANOVA test (IBS SPSS Statistics, v. 21; Armonk, NY, USA). The metabolite formation (% of control) was plotted as a function of the logarithmic concentrations, and then the IC50 values were determined using GraphPad Prism 8 software (San Diego, CA, USA).
The target in data set [4] is CYP2C9 (Homo sapiens, UniProt P11712).
Sequence of CYP2C9 (P11712 whole entry): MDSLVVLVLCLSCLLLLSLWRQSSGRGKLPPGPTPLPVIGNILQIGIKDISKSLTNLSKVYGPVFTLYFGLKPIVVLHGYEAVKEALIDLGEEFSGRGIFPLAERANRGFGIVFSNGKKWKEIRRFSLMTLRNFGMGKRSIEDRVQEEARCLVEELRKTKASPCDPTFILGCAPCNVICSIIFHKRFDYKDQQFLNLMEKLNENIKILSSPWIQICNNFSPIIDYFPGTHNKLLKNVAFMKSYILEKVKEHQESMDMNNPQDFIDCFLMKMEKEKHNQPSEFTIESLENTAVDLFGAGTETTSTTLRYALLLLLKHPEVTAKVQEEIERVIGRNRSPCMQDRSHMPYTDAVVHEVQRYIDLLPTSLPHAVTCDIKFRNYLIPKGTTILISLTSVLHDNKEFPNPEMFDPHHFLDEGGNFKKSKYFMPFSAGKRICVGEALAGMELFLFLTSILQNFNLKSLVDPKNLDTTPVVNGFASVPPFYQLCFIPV
Method: as §2, §3, §4

A word on the pIC50: it is −log10 of the IC50, conventionally taken in molar units. On to `CC(C)=CCC/C(C)=C/COc1c2ccoc2cc2oc(=O)ccc12` [Bergamottin, 5-geranoxypsoralen], for which the pIC50 in data set [1] and in data set [2] was under 4.30 in each case.

As a reminder, the melting point is the temperature, or range, at which the solid turns liquid. `C/C(=C\COc1c2ccoc2cc2oc(=O)ccc12)CCC=C1CC(C)(C)N([O])C(C)(C)C1` [SL-Bergamottin] returned a melting point of 51 to 53 °C. Further, the pIC50 in data set [1] was under 4.30. In addition, the pIC50 in data set [2] is 4.76. In addition, the “fold weaker inhibitor of CYP2C19 than BM” value in data set [3] was about 15 fold.

Regarding `CC(=O)CC(c1ccccc1)c1c(O)c2ccccc2oc1=O` (centres unmarked) [Warfarin, warfarin], in data set [4], the “IC50(rel): IC50 of the inhibitor divided by the substrate concentration” value stood at 1.96 and the “α: IC50 of the inhibitor divided by the IC50 value of the positive control” value turned out to be 1.00.
